Measured values published in PubChem BioAssay (NCI).
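In this assay, cells in 96-well plates receive the compound at five concentrations for 48 hours. Endpoints are linearly interpolated between the surrounding concentrations. The concentration for full growth arrest is given as TGI.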

Experiments:
Assay in all cases: growth of human tumour cells (NCI), 48 h
786-0 renal = system: 786-0 renal
A549 NSCLC = system: A549 NSCLC
ACHN renal = system: ACHN renal
CCRF-CEM leukemia = system: CCRF-CEM leukemia
COLO 205 colon = system: COLO 205 colon
DMS 114 small cell lung = system: DMS 114 small cell lung
DMS 273 small cell lung = system: DMS 273 small cell lung
EKVX NSCLC = system: EKVX NSCLC
HCT-116 colon = system: HCT-116 colon
HCT-15 colon = system: HCT-15 colon
HL-60(TB) leukemia = system: HL-60(TB) leukemia
HOP-18 NSCLC = system: HOP-18 NSCLC
HOP-62 NSCLC = system: HOP-62 NSCLC
HT29 colon = system: HT29 colon
K-562 leukemia = system: K-562 leukemia
KM12 colon = system: KM12 colon
KM20L2 colon = system: KM20L2 colon
LOX IMVI melanoma = system: LOX IMVI melanoma
LXFL 529 NSCLC = system: LXFL 529 NSCLC
M14 melanoma = system: M14 melanoma
M19-MEL melanoma = system: M19-MEL melanoma
MALME-3M melanoma = system: MALME-3M melanoma
MOLT-4 leukemia = system: MOLT-4 leukemia
NCI-H226 lung = system: NCI-H226 lung
NCI-H23 lung = system: NCI-H23 lung
NCI-H460 lung = system: NCI-H460 lung
NCI-H522 lung = system: NCI-H522 lung
OVCAR-4 ovarian = system: OVCAR-4 ovarian
OVCAR-8 ovarian = system: OVCAR-8 ovarian
RPMI-8226 leukemia = system: RPMI-8226 leukemia
RXF 393 renal = system: RXF 393 renal
SF-268 CNS = system: SF-268 CNS
SF-295 CNS = system: SF-295 CNS
SK-MEL-2 melanoma = system: SK-MEL-2 melanoma
SK-MEL-28 melanoma = system: SK-MEL-28 melanoma
SK-MEL-5 melanoma = system: SK-MEL-5 melanoma
SK-OV-3 ovarian = system: SK-OV-3 ovarian
SN12C renal = system: SN12C renal
SNB-19 CNS = system: SNB-19 CNS
SNB-75 CNS = system: SNB-75 CNS
SNB-78 CNS = system: SNB-78 CNS
SR leukemia = system: SR leukemia
SW-620 colon = system: SW-620 colon
TK-10 renal = system: TK-10 renal
U251 CNS = system: U251 CNS
UACC-257 melanoma = system: UACC-257 melanoma
UACC-62 melanoma = system: UACC-62 melanoma
UO-31 renal = system: UO-31 renal
XF 498 CNS = system: XF 498 CNS
CAKI-1 renal = system: CAKI-1 renal
DLD-1 colon = system: DLD-1 colon
HCC-2998 colon = system: HCC-2998 colon
IGROV1 ovarian = system: IGROV1 ovarian
OVCAR-3 ovarian = system: OVCAR-3 ovarian
OVCAR-5 ovarian = system: OVCAR-5 ovarian
SF-539 CNS = system: SF-539 CNS

Measured: TGI

Cc1ccc(NC(=O)CSc2nnc(Cc3ccccc3)o2)c(C)c1
not listed: CAKI-1 renal | DLD-1 colon | HCC-2998 colon | IGROV1 ovarian | OVCAR-3 ovarian | OVCAR-5 ovarian | SF-539 CNS
> 100 µM: all other assays above

COC(=O)/C(C#N)=C1\CCC(Nc2cccc(C(F)(F)F)c2)N1C (stereo not drawn)
not listed: COLO 205 colon | DMS 114 small cell lung | DMS 273 small cell lung | HCT-15 colon | M19-MEL melanoma | SK-MEL-5 melanoma | SR leukemia
> 100 µM: all other assays above
